Measurements as given in PubChem BioAssay AID1117337 (Cheminformatics & Chemogenomics Research Group (CCRG), …, 2015).
The source made the active and inactive calls. No rule for the calls is given here.

These molecules were tested on ADSC/ECFC co-culture, VEGF-stimulated, CD31 tube area (assay: ADSC/ECFC co-culture angiogenesis inhibition – imaging, VEGF stimulation, CD31 staining, tube area, IC50, dose response (AID 1117337)).
CC(=O)N(CC(O)CN(C(C)=O)c1c(I)c(C(=O)NCC(O)CO)c(I)c(C(=O)NCC(O)CO)c1I)c1c(I)c(C(=O)NCC(O)CO)c(I)c(C(=O)NCC(O)CO)c1I (configuration not stated) was tested, and the IC50 was > 10000 nM (inactive).
In the case of CC(=O)O[C@H]1C[C@H](O[C@H]2[C@@H](O)C[C@H](O[C@@H]3[C@@H](O)C[C@H](O[C@H]4CC[C@@]5(C)[C@H](CC[C@@H]6[C@H]5C[C@@H](O)[C@]5(C)[C@@H](C7=CC(=O)OC7)CC[C@]65O)C4)O[C@@H]3C)O[C@@H]2C)O[C@H](C)[C@H]1O[C@@H]1O[C@H](CO)[C@@H](O)[C@H](O)[C@@H]1O, the IC50 is reported as 70.2 nM.
C[S+](CC[C@H](N)C(=O)O)C[C@H]1O[C@@H](n2cnc3c(N)ncnc32)[C@H](O)[C@H]1O (some centres not stated) was tested, and the IC50 was > 10000 nM (inactive).
In the case of CCC1Nc2cc(Cl)c(S(N)(=O)=O)cc2S(=O)(=O)N1 (configuration not stated), the IC50 is reported as > 10000 nM (inactive).
With Oc1c(I)cc(Cl)c2cccnc12 the IC50 was > 10000 nM (inactive).
CCCCCCCCCCCC(=O)[O][Sn]([CH2]CCC)([CH2]CCC)[O]C(=O)CCCCCCCCCCC was tested, and the IC50 was 2010 nM.
CCN(CC)CCNC(=O)c1c(C)[nH]c(/C=C2\C(=O)Nc3ccc(F)cc32)c1C showed an IC50 of 25.4 nM.
In the case of C=CC(C)(O)CCC=C(C)CCC=C(C)C (configuration not stated), the IC50 is reported as > 10000 nM (inactive).
CCC(C)n1ncn(-c2ccc(N3CCN(c4ccc(OC[C@H]5CO[C@](Cn6cncn6)(c6ccc(Cl)cc6Cl)O5)cc4)CC3)cc2)c1=O (some centres not stated) showed an IC50 of 1550 nM.
In the case of O=c1[nH]c(=O)n([C@H]2C[C@H](O)[C@@H](CO)O2)cc1F, the IC50 is reported as 21.6 nM.
For CN1CCN(C2Cc3ccccc3Sc3ccc(Cl)cc32)CC1 (configuration not stated), the IC50 was 5230 nM (inactive).
For CCCCCCCCCCCCCCCCNc1ccc(C(=O)O)cc1, the IC50 was 367 nM.
For Cc1cc(-c2ccc(N=Nc3c(S(=O)(=O)O)cc4cc(S(=O)(=O)O)cc(N)c4c3O)c(C)c2)ccc1N=Nc1c(S(=O)(=O)O)cc2cc(S(=O)(=O)O)cc(N)c2c1O, the IC50 was > 10000 nM (inactive).
With CCOC(=O)[C@H](CCc1ccccc1)N[C@@H](C)C(=O)N1C(=O)N(C)C[C@H]1C(=O)O the IC50 was > 10000 nM (inactive).
Clc1ccc(CSC(Cn2ccnc2)c2ccc(Cl)cc2Cl)cc1 (configuration not stated) gave an IC50 of 2130 nM.
C[C@@H](NCCCc1cccc(C(F)(F)F)c1)c1cccc2ccccc12 was tested, and the IC50 was > 10000 nM (inactive).
With CCOC(=O)C1=C[C@]2(CC)CCCN3CCc4c(n1c1ccccc41)[C@@H]32 the IC50 was > 10000 nM (inactive).
For COC(=O)Nc1nc2ccc(S(=O)c3ccccc3)cc2[nH]1 (configuration not stated), the IC50 was 288 nM.
Work on COC(=O)Nc1nc2ccc(C(=O)c3cccs3)cc2[nH]1 yielded an IC50 of 102 nM.
COc1cc([C@@H]2c3cc4c(cc3[C@@H](O[C@@H]3O[C@@H]5CO[C@@H](C)O[C@@H]5[C@H](O)[C@@H]3O)[C@H]3COC(=O)[C@H]23)OCO4)cc(OC)c1O was tested, and the IC50 was 109 nM.
O=C(NC(=O)c1c(F)cccc1F)Nc1ccc(Cl)c(Oc2ncc(C(F)(F)F)cc2Cl)c1 was tested, and the IC50 was > 10000 nM (inactive).
In the case of OC[C@@H](O)[C@H](O)[C@H](O)[C@@H](O)CO, the IC50 is reported as > 10000 nM (inactive).
In the case of CC(=O)[O][Hg][c]1ccccc1, the IC50 is reported as 530 nM.
In the case of CN1CCN(CCCN2c3ccccc3Sc3ccc(C(F)(F)F)cc32)CC1, the IC50 is reported as > 10000 nM (inactive).
For O[C@@H](c1cc(C(F)(F)F)nc2c(C(F)(F)F)cccc12)[C@H]1CCCCN1, the IC50 was > 10000 nM (inactive).
In the case of O=C(CBr)Nc1ccc(Cl)cc1C(=O)c1ccccc1F, the IC50 is reported as > 10000 nM (inactive).
CCCCCCCC[N+](C)(C)CCCCCCCC gave an IC50 of 1390 nM.
With CCN(CC)C(=O)/C(C#N)=C/c1cc(O)c(O)c([N+](=O)[O-])c1 the IC50 was > 10000 nM (inactive).
In the case of CCc1oc2ccccc2c1C(=O)c1cc(I)c(O)c(I)c1, the IC50 is reported as 5850 nM (inactive).
For CC1=C(/C=C/C(C)=C/C=C/C(C)=C/C(=O)Nc2ccc(O)cc2)C(C)(C)CCC1, the IC50 was 1340 nM.
CN(C)CCOC1=Cc2ccccc2Sc2ccc(Cl)cc21 was tested, and the IC50 was > 10000 nM (inactive).
For C#C[C@]1(O)CC[C@@H]2[C@@H]3CCC4=CCCC[C@@H]4[C@H]3C(=C)C[C@@]21CC, the IC50 was > 10000 nM (inactive).
Work on CCCCCN=C(N)N/N=C/c1c[nH]c2ccc(OC)cc12 yielded an IC50 of 3130 nM.
CCCCN(CCCC)CCC(O)c1cc2c(Cl)cc(Cl)cc2c2cc(C(F)(F)F)ccc12 (configuration not stated) was tested, and the IC50 was > 10000 nM (inactive).
CCN(CC)CCNc1ccc(CO)c2sc3ccccc3c(=O)c12 was tested, and the IC50 was 8350 nM (inactive).
In the case of Oc1ccc2[nH]cc(CCCCN3CC=C(c4ccccc4)CC3)c2c1, the IC50 is reported as 4040 nM.
Molecule COC(=O)Nc1nc2ccc(C(=O)c3ccccc3)cc2[nH]1 has an IC50 of 370 nM.
In the case of CCCCCCCCCCCCCCNCCO, the IC50 is reported as > 10000 nM (inactive).
COc1cccc2c1C(=O)c1c(O)c3c(c(O)c1C2=O)C[C@@](O)(C(=O)CO)C[C@@H]3O[C@H]1C[C@H](N)[C@H](O[C@@H]2CCCCO2)[C@H](C)O1 showed an IC50 of 6.3 nM.
In the case of O=c1c(-c2ccc(O)cc2)coc2cc(O)cc(O)c12, the IC50 is reported as > 10000 nM (inactive).
In the case of CN[C@@H]1C[C@@H](c2ccc(Cl)c(Cl)c2)c2ccccc21, the IC50 is reported as > 10000 nM (inactive).
O=C(NOCC1CC1)c1ccc(F)c(F)c1Nc1ccc(I)cc1Cl gave an IC50 of 368 nM.
With CC(COc1ccccc1)NN (configuration not stated) the IC50 was > 10000 nM (inactive).
Work on Clc1ccc(C(Cn2ccnc2)OCc2ccsc2Cl)c(Cl)c1 (configuration not stated) yielded an IC50 of 5000 nM.
CCN(CC)CCOc1ccc(C(O)(Cc2ccc(Cl)cc2)c2ccc(C)cc2)cc1 (configuration not stated) was tested, and the IC50 was 3210 nM.
Work on Cc1ccc([N+](=O)[O-])[c]2c1[O][Hg]2 yielded an IC50 of 668 nM.
In the case of O=C1C(=O)c2ccccc2C(O)=C1C1CCC(c2ccc(Cl)cc2)CC1 (configuration not stated), the IC50 is reported as 5180 nM (inactive).
In the case of CCC1C(=O)OCC1Cc1cncn1C (configuration not stated), the IC50 is reported as > 10000 nM (inactive).
With CSc1ccc(/C=C2/C(C)=C(CC(=O)O)c3cc(F)ccc32)cc1 the IC50 was > 10000 nM (inactive).
S=C=Nc1ccc(N=C=S)cc1 was tested, and the IC50 was > 10000 nM (inactive).
For CC(C)=CCOc1ccc(/C=C/C(=O)c2ccc(OCC=C(C)C)cc2OCC(=O)O)cc1, the IC50 was > 10000 nM (inactive).
In the case of COc1ccc(-c2ccc3cc(C(=O)O)ccc3c2)cc1C12CC3CC(CC(C3)C1)C2, the IC50 is reported as 524 nM.
With CSc1ccc2c(c1)C(N1CCN(C)CC1)Cc1ccccc1S2 (configuration not stated) the IC50 was > 10000 nM (inactive).
Molecule C[C@@]12C(=O)OC(=O)[C@]1(C)C1CCC2O1 has an IC50 of 1230 nM.
With Cc1ccc(O)cc1 the IC50 was > 10000 nM (inactive).
In the case of CCCCCCCCCCCCCCCCCC[N+](C)(C)CCC[Si](OC)(OC)OC, the IC50 is reported as > 10000 nM (inactive).
With CCC1=C[C@@H]2CN(C1)Cc1c([nH]c3ccccc13)[C@@](C(=O)OC)(c1cc3c(cc1OC)N(C)[C@H]1[C@@](O)(C(=O)OC)[C@H](OC(C)=O)[C@]4(CC)C=CCN5CC[C@]31[C@@H]54)C2 the IC50 was 5.5 nM.
In the case of C[C@@H](O[C@H]1OCCN(Cc2n[nH]c(=O)[nH]2)[C@H]1c1ccc(F)cc1)c1cc(C(F)(F)F)cc(C(F)(F)F)c1, the IC50 is reported as 6890 nM (inactive).
In the case of CCCCC(CC)CN=C(N)NC(N)=NCCCCCCN=C(N)NC(N)=NCC(CC)CCCC (configuration not stated), the IC50 is reported as 408 nM.
With ClC1=C(Cl)C2(Cl)C(CBr)CC1(Cl)C2(Cl)Cl (configuration not stated) the IC50 was > 10000 nM (inactive).
For CC(=O)Oc1cccc2c1C(=O)c1c(OC(C)=O)cc(C(=O)O)cc1C2=O, the IC50 was > 10000 nM (inactive).
Work on CCCSc1ccc2nc(NC(=O)OC)[nH]c2c1 yielded an IC50 of 355 nM.
In the case of Cc1cc(O)c2ccccc2c1O, the IC50 is reported as 4890 nM.
O=C(Nc1ccc([N+](=O)[O-])cc1Cl)c1cc(Cl)ccc1O gave an IC50 of 112 nM.
For CC=CC1C(C(=O)OCc2c(F)c(F)c(COC)c(F)c2F)C1(C)C (configuration not stated), the IC50 was > 10000 nM (inactive).
In the case of O=c1oc2c(O)c(O)cc3c(=O)oc4c(O)c(O)cc1c4c23, the IC50 is reported as > 10000 nM (inactive).
CN(C)c1ccc(C(=C2C=CC(=[N+](C)C)C=C2)c2ccc(N(C)C)cc2)cc1 gave an IC50 of 186 nM.
